Measured values as given in ChEMBL document CHEMBL1136422, “Synthesis, in vitro, and in vivo evaluation of phosphate ester derivatives of combretastatin A-4” (Bioorg Med Chem Lett, 2003).

What was measured:
[1] = In vitro cytotoxicity evaluated in mouse heart endotheliaoma cell (MHEC5-T) after incubation of the cells for 5 days; type: functional, cell-based; conditions: 120 h
[2] = In vitro cytotoxicity evaluated in mouse heart endotheliaoma cell (MHEC5-T) after incubation of the cells for 1 hr; type: functional, cell-based
[3] = system: Mus musculus; assay: Vascular shutdown expressed as vessel density decrease in percent of the control at the dose of 100 mg/kg; type: functional
[4] = system: HT-29; assay: Cytotoxicity evaluated against colon cancer cell line (HT-29); type: functional, cell-based; conditions: Homo sapiens

## COc1ccc(/C=C\c2cc(OC)c(OC)c(OC)c2)cc1OP(=O)([O-])Oc1cc(/C=C\c2cc(OC)c(OC)c(OC)c2)ccc1OC.[Na+]
[1]
  IC50: 510 nM
[2]
  IC50: > 25000 nM
[3]
  Vessel density decrease vs control: 0%

## COc1ccc(/C=C\c2cc(OC)c(OC)c(OC)c2)cc1OP(=O)(O)OC1CCCCC1.N
[1]
  IC50: 3000 nM
[2]
  IC50: > 25000 nM
[3]
  Vessel density decrease vs control: 0%

## CCCCCCCCOP(=O)(O)Oc1cc(/C=C\c2cc(OC)c(OC)c(OC)c2)ccc1OC.N
[1]
  IC50: 70 nM
[2]
  IC50: 25000 nM
[3]
  Vessel density decrease vs control: 89%

## COc1ccc(/C=C\c2cc(OC)c(OC)c(OC)c2)cc1OP(=O)(O)OCC(F)(F)F.N
[1]
  IC50: 60 nM
[2]
  IC50: 10000 nM
[3]
  Vessel density decrease vs control: 0%

## COc1ccc(/C=C\c2cc(OC)c(OC)c(OC)c2)cc1OP(=O)(OC)OC
[1]
  IC50: 130 nM
[2]
  IC50: 35000 nM
[3]
  Vessel density decrease vs control: 20%

## CCCCOP(=O)(OCCCC)Oc1cc(/C=C\c2cc(OC)c(OC)c(OC)c2)ccc1OC
[1]
  IC50: 260 nM
[2]
  IC50: 8000 nM
[3]
  Vessel density decrease vs control: 0%

## COc1ccc(/C=C\c2cc(OC)c(OC)c(OC)c2)cc1OP(=O)(O)OC.N
[1]
  IC50: 70 nM
[2]
  IC50: 38000 nM
[3]
  Vessel density decrease vs control: 0%

## COc1ccc(/C=C\c2cc(OC)c(OC)c(OC)c2)cc1OP(=O)(O)Oc1cccc(Cl)c1.N
[1]
  IC50: 3000 nM
[2]
  IC50: > 25000 nM
[3]
  Vessel density decrease vs control: 90%

## COc1ccc(/C=C\c2cc(OC)c(OC)c(OC)c2)cc1OCCCS(=O)(=O)[O-].[Na+]
[1]
  IC50: > 25000 nM
[2]
  IC50: > 25000 nM
[3]
  Vessel density decrease vs control: 10%

## COc1ccc(/C=C\c2cc(OC)c(OC)c(OC)c2)cc1O [COMBRETASTATIN A4]
[1]
  IC50: 4 nM
[2]
  IC50: 1050 nM
[3]
  Vessel density decrease vs control: 71%

## COc1ccc(/C=C\c2cc(OC)c(OC)c(OC)c2)cc1OP(=O)([O-])[O-].[Na+].[Na+] [FOSBRETABULIN DISODIUM]
[1]
  IC50: 2 nM
[4]
  IC50: 200 nM
[2]
  IC50: 800 nM
[3]
  Vessel density decrease vs control: 88%
